Consider three compounds from patent US20070292385A1, “Phospholipase Inhibitors Localized in the Gastrointestinal Lumen” (priority 2004, published 2007).

The IC50 is the concentration that inhibits the measured activity by half. For orientation: AUC(0-inf) means the area under the concentration-time curve extrapolated to infinity. Higher therefore signals high exposure. A word on the Cmax: it is the maximum level reached in the sampled fluid or tissue. As a reminder, the Tmax is the time at which the peak concentration occurs.

The subject of one data set is PL A2. Conditions: cited from earlier work.
The nature of data set [1]: pharmokinetic study, IV and oral. It counts as in vivo, mice. Conditions: for AUC(0-inf) / Cmax / Tmax / half-life: mouse, plasma; for half-life: read-out: t½ (converted). How it is done: This example characterized ILY-4001 [2-(3-(2-amino-2-oxoacetyl)-1-(biphenyl-2-ylmethyl)-2-methyl-1H-indol-4-yloxy)acetic acid], alternatively referred to herein as methyl indoxam, with respect to activity, as determined by IC50 assay (Example 1B-1), with respect to cell absorbtion, as determined by in-vitro Caco-2 assay (Example 1B-2) and with respect to bioavailability, as determined using in-vivo mice studies (Example 1B-3).
Bioavailability was calculated as a ratio of AUC-oral/AUC-intravenous (IV). To determine this ratio, a first set of subject animals were given a measured intravenous (IV) dose of ILY-4001, followed by a determination of ILY-4001 levels in the blood at various time points after administration (e.g., 5 minutes through 24 hours). Another second set of animals was similarly dosed using oral administration, with blood levels of ILY-4001 determined at various time points after administration (e.g., 30 minutes through 24 hours). The level of ILY-4001 in systemic circulation were determined by generally accepted methods (for example as described in Evans, G., A Handbook of Bioanalysis and Drug Metabolism. Boca Raton, CRC Press (2004)). Specifically, […]/mass spectrometry/mass spectrometry (LC/MS/MS) analytical methods were used to quantitate plasma concentrations of ILY-4001 after oral and intravenous administration. Pharmacokinetic parameters that were measured include Cmax, AUC, tmax, t1/2, and F (bioavailability).
In this procedure, ILY-4001 was dosed at 3 mg/kg IV and 30 mg/kg oral. […] This indicated about a 72% level of non-absorption of ILY-4001 from the GI tract into systemic circulation.

Data set [2] concerns Caco-2 monolayers. In words: Caco-2 permeability study. The following applies: apical to basolateral.
A short description of data set [3]: in-vivo study on high fat/high sucrose diabetogenic diet (Example 10). On the set-up: species or system C57BL/6 mice. The following applies: for fasting glucose levels: low dose 25 mg/kg/day. On the procedure:
ILY-4001 (FIG. 5) was evaluated as a PLA2 IB inhibitor in a set of experiments using wild-type mice and genetically deficient PLA2 (−/−) mice (also referred to herein as PLA2 knock-out (KO) mice). In these experiments, wild-type and PLA2 (−/−) mice were maintained on a high fat/high sucrose diet, details of which are described below.
Briefly, four groups were set up, each having six mice. Three of the groups included six wild-type PLA2 (+/+) mice in each group (eighteen mice total), and one of the groups included six genetically deficient PLA2 (−/−) mice. One of the wild-type groups was used as a wild-type control group, and was not treated with ILY-4001. The other two wild-type groups were treated with ILY-4001—one group at a lower dose (indicated as “L” in Table 1) of 25 mg/kg/day, and the other at a higher dose (indicated as “H” in Table 1) of 90 mg/kg/day. The group comprising the PLA2 (−/−) mice was used as a positive control group.
The experimental protocol used in this study was as follows. The four groups of mice, including wild type and isogenic PLA2 (−/−) C57BL/J mice were acclimated for three days on a low fat/low carbohydrate diet. After the three day acclimation phase, the animals were fasted overnight and serum samples taken to establish baseline plasma cholesterol, triglyceride, and glucose levels, along with baseline body weight. The mice in each of the treatment groups were then fed a high fat/high sucrose diabetogenic diet (Research Diets D12331). 1000 g of the high fat/high sucrose D12331 diet was composed of casein (228 g), DL-methionine (2 g), maltodextrin 10 (170 g), sucrose (175 g), soybean oil (25 g), hydrogenated coconut oil (333.5 g), mineral mix S10001 (40 g), sodium bicarbonate (10.5 g), potassium citrate (4 g), vitamin mix V10001 (10 g), and choline bitartrate (2 g). This diet was supplemented with ILY-4001 treatments such that the average daily dose of the compound ingested by a 25 g mouse was: 0 mg/kg/day (wild-type control group and PLA2 (−/−) control group); 25 mg/kg/day (low-dose wild-type treatment group), or 90 mg/kg/day (high-dose wild-type treatment group). The animals were maintained on the high fat/high sucrose diet, with the designated ILY-4001 supplementation, for a period of ten weeks.
Body weight measurements were taken for all animals in all treatment and control groups at the beginning of the treatment period and at 4 weeks and 10 weeks after initiation of the study. (See Example 10A). Blood draws were also taken at the beginning of the treatment period (baseline) and at 4 weeks and 10 weeks after initiation of the study, in order to determine fasting glucose (See Example 10B). Cholesterol and triglyceride levels were determined from blood draws taken at the beginning of the treatment (baseline) and at ten weeks. (See Example 10C).

For the next data set, the target named is T1, Porcine PLA2 IB (Sus scrofa, UniProt P00592).
T1 construct: purchased
In words: continuous fluorimetric assay for PLA2 activity (PPyrPG vesicles). It is filed as biochemical. Conditions: 37° C. From the text:
A continuous fluorimetric assay for PLA2 activity described in the literature was used to determine IC (Leslie, C C and Gelb, M H (2004) Methods in Molecular Biology “Assaying phospholipase A2 activity”, 284: 229-242, Singer, A G, et al. (2002) Journal of Biological Chemistry “Interfacial kinetic and binding properties of the complete set of human and mouse groups I, II, V, X, and XII secreted phospholipases A2”, 277: 48535-48549, Bezzine, S, et al. (2000) Journal of Biological Chemistry “Exogenously added human group X secreted phospholipase A(2) but not the group IB, IIA, and V enzymes efficiently release arachidonic acid from adherent mammalian cells”, 275: 3179-3191) and references therein.
Generally, this assay used a phosphatidylglycerol (or phosphatidylmethanol) substrate with a pyrene fluorophore on the terminal end of the sn-2 fatty acyl chain. […] The effect of a given inhibitor and inhibitor concentration on any given phospholipase can be determined. […]
In this example, the procedure was performed as follows: • 1. […] The fluorescence was read using an excitation of 342 nm and an emission of 395 nm.
In this example, the IC50 was calculated using the BioDataFit 1.02 (Four Parameter Model) software package. […]

Data set [4] has as its system Caco-2 monolayers.
[5] abbreviates: low and high doses (25 and 90 mg/kg/day), 10 weeks.

Where two headings read alike, the source gives them in different places.

T1 sequence (P00592 23-146): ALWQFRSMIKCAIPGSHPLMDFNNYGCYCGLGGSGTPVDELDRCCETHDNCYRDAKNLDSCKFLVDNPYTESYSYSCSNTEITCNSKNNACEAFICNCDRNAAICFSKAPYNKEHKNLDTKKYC

With `CCC1=C(CC(N)=O)c2cc(OCCCP(=O)(O)O)ccc2C1Nc1ccccc1` (stereo not shown), the IC50 result with PL A2 is “sub μM range”.

As to `Cc1c(C(=O)C(N)=O)c2c(OCC(=O)O)cccc2n1Cc1ccccc1-c1ccccc1` [ILY-4001, 2-(3-(2-amino-2-oxoacetyl)-1-(biphenyl-2-ylmethyl)-2-methyl-1H-indol-4-yloxy)acetic acid], in data set [1] (iv, 3 mg/kg), the AUC(0-inf) was 2760 ng·h/mL, the highest level (Cmax) was 3170 ng/mL, the Tmax turned out to be 0.083 h and the half-life is 1.03 h. The AUC(0-t) in data set [1] (mouse, plasma, iv, 3 mg/kg; read-out: AUC 0-24)) came out at 2790 ng·h/mL. Also, in data set [1] (oral, 30 mg/kg), the AUC(0-inf) came out at 5730 ng·h/mL, the Cmax worked out at 2290 ng/mL, the Tmax is 1 h and the half-life is 1.25 h. Besides, in data set [1] (mouse, plasma; oral, 30 mg/kg; read-out: AUC 0-24)), the AUC(0-t) was 5950 ng·h/mL. The apparent permeability result in the data set with Caco-2 monolayers [2] is “around 1.66×10^−7 cm/s”. Moreover, in data set [3] (25 mg/kg/d and 90 mg/kg/d in diet, week 4 and week 10), the “body weight gain compared to wild-type control group” value was “significantly reduced”. Further, in data set [3] (setting [5]), the “plasma levels of cholesterol” value is given as “substantially reduced” and the “plasma levels of triglycerides” value is reported as “substantially reduced”. For the same compound, the fasting glucose levels entry in data set [3] (week four) is reported as “moderately beneficial effect”. In addition, in data set [3] (week ten), the fasting glucose levels result was “beneficial effect was not observed”. The IC50 against Porcine PLA2 IB was determined as 62 nM.

For the compound Lucifer Yellow, in the data set on Caco-2 monolayers [4], the apparent permeability entry is “around 2.82×10^−7+/−0.37×10^−7 cm/s”.
